Experimental data taken from publication PMC3310380 (Journal of Biomolecular Screening, 2010).

Legend:
[1] = tested on: EBV genome copy number in Raji Burkitt lymphoma cells; experiment: EBV genome maintenance assay in Raji cells; assay type: cell-based, Epstein-Barr virus; settings: six days, 50 μM
EBNA1 DBD = EBNA1 DBD (Epstein-Barr virus, UniProt P03211 459-607); experiment: EMSA
EBNA1 DBD, sequence (P03211 459-607): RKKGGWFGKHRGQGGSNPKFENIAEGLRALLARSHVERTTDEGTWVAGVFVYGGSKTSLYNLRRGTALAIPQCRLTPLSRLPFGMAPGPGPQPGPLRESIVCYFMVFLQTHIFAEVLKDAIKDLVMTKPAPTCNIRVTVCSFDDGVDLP

| Molecule | EBV DNA copy number, of its original content relative to cellular actin [1] | binding result (EBNA1 DBD) |
| --- | --- | --- |
| NC(=O)NO [HU, hydroxyurea] | ~ 48% | – |
| Probe A (dsDNA) DNA 1: GGGTAGCATATGCTACCC DNA 2: GGGTAGCATATGCTACCC | – | binds |
